SMILES strings stand for the structures.

Common to all, as to experiment: Bromoscan selectivity profiling (DiscoveRx)
What all share (conditions): at 20,000 nM

One assay deals with TRIM33(PHD, Bromo.). The format is binding, human. The protocol: (§1) qPCR-based BRD binding assay. Another method for the determination of dissociation constants of BRD-ligand complexes is offered by DiscoveRx Corp. The assay is based on competition between test compound and immobilized high-affinity ligand for binding to the KAc site of BRDs. The amount of TAF1 remaining on an immobilized high-affinity ligand in the presence of ligand is measured using a quantitative real-time polymerase chain reaction (qPCR) method that detects the associated DNA label tagged to the BRD.
(§2) Inhibitor selectivity assays To assess target selectivity, compounds with highest biochemical and cellular activities can be profiled against panels of BRDs and kinases using the services of DiscoveRx and/or Reaction biology, as we have done previously.

The next assay concerns the target T1, PBRM1(2) (Homo sapiens, UniProt Q86U86).
T1 construct: PBRM1(2); purchased DiscoveRx
The format is binding. The protocol:
as §1, §2

The target in the next assay is T2, BRPF3 (Homo sapiens, UniProt Q9ULD4).
T2 construct: purchased DiscoveRx
Type of assay: binding. The protocol:
as §1, §2

A further assay has as its target T3, CREBBP (Homo sapiens, UniProt Q92793).
T3 construct: purchased DiscoveRx
The format is binding. The protocol:
as §1, §2

Another assay addresses T4, BRDT(1) (Homo sapiens, UniProt Q58F21).
T4 construct: BRDT(1); purchased DiscoveRx
Type of assay: binding. As to the method: as §1, §2

Another assay addresses T5, BRD9 (Homo sapiens, UniProt Q9H8M2).
T5 construct: purchased DiscoveRx
The format is binding. The protocol: as §1, §2

For another assay, the target named is T6, FALZ (Homo sapiens, UniProt Q12830).
T6 construct: purchased DiscoveRx
Type of assay: binding. The protocol: as §1, §2

The next assay has as its target T7, BRD3(2) (Homo sapiens, UniProt Q15059).
T7 construct: 32 bromodomains (by DiscoveRx); purchased DiscoveRx (BromoScan service)
The format is binding. The protocol: as §1, §2

The target of another assay is T8, CECR2 (Homo sapiens, UniProt Q9BXF3).
T8 construct: purchased DiscoveRx
The format is binding. As to the method: as §1, §2

Another assay has as its target T9, EP300 (Homo sapiens, UniProt Q09472).
T9 construct: purchased DiscoveRx
Type of assay: binding. As to the method: as §1, §2

The next assay addresses T10, BRD2(1) (Homo sapiens, UniProt P25440).
T10 construct: 32 bromodomains (by DiscoveRx); purchased DiscoveRx (BromoScan service)
The format is binding. As to the method:
as §1, §2

T8 sequence (Q9BXF3 434-538 limits assumed): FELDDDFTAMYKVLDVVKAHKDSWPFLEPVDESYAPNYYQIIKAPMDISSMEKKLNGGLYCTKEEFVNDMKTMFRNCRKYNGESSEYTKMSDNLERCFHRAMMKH
T7 sequence (Q15059 306-415 limits assumed): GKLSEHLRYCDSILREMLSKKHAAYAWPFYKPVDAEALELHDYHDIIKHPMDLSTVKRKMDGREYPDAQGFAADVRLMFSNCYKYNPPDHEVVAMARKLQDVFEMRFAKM
T3 sequence (Q92793 1085-1192 limits assumed): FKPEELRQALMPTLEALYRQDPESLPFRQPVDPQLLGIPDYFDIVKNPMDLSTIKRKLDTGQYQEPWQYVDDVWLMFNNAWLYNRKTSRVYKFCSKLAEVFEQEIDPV
T5 sequence (Q9H8M2 136-240 limits assumed): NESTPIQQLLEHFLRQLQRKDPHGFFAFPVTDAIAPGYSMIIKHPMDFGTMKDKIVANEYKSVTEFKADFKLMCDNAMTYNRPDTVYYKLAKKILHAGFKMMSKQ
T10 sequence (P25440 74-180 limits assumed): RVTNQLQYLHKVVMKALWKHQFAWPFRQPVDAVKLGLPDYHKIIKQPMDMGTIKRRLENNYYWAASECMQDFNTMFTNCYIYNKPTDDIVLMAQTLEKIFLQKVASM
T1 sequence (Q86U86 177-287 limits assumed): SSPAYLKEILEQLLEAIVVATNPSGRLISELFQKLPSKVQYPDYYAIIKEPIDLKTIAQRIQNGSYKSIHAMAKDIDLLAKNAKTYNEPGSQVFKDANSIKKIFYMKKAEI
T9 sequence (Q09472 1049-1156 limits assumed): as the sequence (Q92793 1085-1192 limits assumed) above, with N47S, V73I, F93Y, A98S counted along it
T2 sequence (Q9ULD4 589-693 limits assumed): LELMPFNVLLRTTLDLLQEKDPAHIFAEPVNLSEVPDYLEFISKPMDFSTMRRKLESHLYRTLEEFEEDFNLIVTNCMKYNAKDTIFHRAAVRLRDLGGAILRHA

Take `C[C@@H]1COCCN1c1cc(C2([S@](C)(=N)=O)CC2)nc(-c2cc[nH]c3nccc2-3)n1` [AZD6738]: the “% Inhibition TRIM33(PHD, Bromo.)” value with TRIM33(PHD, Bromo.) was 0%. Also, the inhibition at 20 µM was 5% against PBRM1(2); 20% on BRPF3; 20% against CREBBP; 56% on BRDT(1); 13% on BRD9; 11% against FALZ. The inhibition at 20 µM against BRD3(2) was found to be 82%; against CECR2 it was 92.3%; against EP300, 36%; at BRD2(1), 46%.

The values are drawn from patent publication US20240150333A1, “TAF1 INHIBITORS” (H. LEE MOFFITT CANCER CENTER AND RESEARCH INSTITUTE, INC., priority 2020, published 2024).
